Laboratory results published in article PMC10599620, “Structure of a diatom photosystem II supercomplex containing a member of Lhcx family and dimeric FCPII” (Science Advances, 2023).

What was measured:
[1] = molecular target: T1, Tp-Lhcf7 homodimer (Thalassiosira pseudonana, UniProt B8BX93); assay: cryo-EM structure of native supercomplex, […] A; format: binding; conditions: sites 301 and 302
T1 construct: native FCPII homodimer (Lhcf7_1, Lhcf7_2) within purified PSII-FCPII supercomplex
T1 sequence (B8BX93 31-194 limits assumed): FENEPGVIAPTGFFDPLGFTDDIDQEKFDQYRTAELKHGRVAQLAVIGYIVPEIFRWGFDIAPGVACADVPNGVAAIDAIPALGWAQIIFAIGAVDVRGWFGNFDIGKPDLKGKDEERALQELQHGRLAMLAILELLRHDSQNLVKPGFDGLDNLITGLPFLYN

[2] = molecular target: T2, Tp-Lhcf11 (Thalassiosira pseudonana, UniProt B8BVI1); assay: cryo-EM structure of native supercomplex, local map […] A; format: binding; conditions: site 305
T2 construct: native; Lhcf6-Lhcf11 heterodimer within purified PSII-FCPII supercomplex; with Fucoxanthin chlorophyll a/c light-harvesting protein Lhcf6
T2 sequence (B8BVI1 31-196): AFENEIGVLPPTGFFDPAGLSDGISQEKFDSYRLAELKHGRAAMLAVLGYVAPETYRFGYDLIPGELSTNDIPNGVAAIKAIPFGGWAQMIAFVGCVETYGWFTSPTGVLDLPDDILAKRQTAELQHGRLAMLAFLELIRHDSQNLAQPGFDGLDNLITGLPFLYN

[3] = molecular target: T3, Tp-Lhcf7 (Thalassiosira pseudonana); assay: cryo-EM structure; native PSII-FCPII supercomplex co-purified from T. pseudonana (cells grown under low light), in 50 mM Mes-NaOH pH 6.5, 10 mM NaCl, 5 mM CaCl2, 0.03% alpha-DDM, 2 mg Chl/ml; overall map 2.68 A, local map of the peripheral FCPII 3.19 A; conditions: both partners purified
T3 chain: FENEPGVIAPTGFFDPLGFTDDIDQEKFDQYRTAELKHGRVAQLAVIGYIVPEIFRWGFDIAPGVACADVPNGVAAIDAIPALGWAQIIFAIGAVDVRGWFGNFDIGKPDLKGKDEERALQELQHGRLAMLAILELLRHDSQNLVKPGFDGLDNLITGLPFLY

CC(=O)O[C@H]1CC(C)(C)C(=C=C/C(C)=C/C=C/C(C)=C/C=C/C=C(C)/C=C/C=C(\C)C(=O)C[C@@]23O[C@]2(C)C[C@@H](O)CC3(C)C)[C@](C)(O)C1 [Fx]
cryo-EM structure of native supercomplex, 2.68 A [1]: There are two Fxs, Fx301 and Fx302, in Tp-Lhcf7
cryo-EM structure of native supercomplex, local map 3.19 A [2]: two changes of pigment species at Chl c403 and Fx305 sites

B1: Tp-Lhcf7 (natural protein)
chain: FENEPGVIAPTGFFDPLGFTDDIDQEKFDQYRTAELKHGRVAQLAVIGYIVPEIFRWGFDIAPGVACADVPNGVAAIDAIPALGWAQIIFAIGAVDVRGWFGNFDIGKPDLKGKDEERALQELQHGRLAMLAILELLRHDSQNLVKPGFDGLDNLITGLPFLY
modifications: binds 12-13 Chl a, 2 fucoxanthins, 2 diadinoxanthins; homodimer in the supercomplex; limits are the residues modelled in 8IWH (Table S4) / binds 12-13 Chl a, 2 fucoxanthins, 2 diadinoxanthins …
stoichiometry N [3]: 2
